Each structure is given as a SMILES string.

Format in all cases: cell-based
One assay has as its system H1299 NSCLC cells. The assay can be described thus: CCK-8 cell proliferation / cytotoxicity, H1299. The following applies: Homo sapiens, NCI-H1299, H1299 (EGFR+++), 72 h. Here is the method: (§1) H520, H1299, and A549 cells were plated at a density of 3×10^3 cells/well in 96-well multiplates. […] Then after, 10 ul of CCK-8 solution was added to each well and further developed for 2 h. The absorbance values were detected at a wavelength of 450 nm using a Bio-Rad microplate reader. The cell viability was calculated by the optical density (OD) values of treated groups/OD values of control groups (Vehicle/PBS)×100%.

The next assay relates to A549 NSCLC cells. The assay can be described thus: CCK-8 cell proliferation / cytotoxicity, A549. The conditions noted are these: Homo sapiens, A549 (EGFR+++), 72 h. Here is the method:
as §1

For the next assay, the system named is H520 NSCLC cells. Put plainly: CCK-8 cell proliferation / cytotoxicity, H520. The following applies: Homo sapiens, NCI-H520, H520 (EGFR+/-), 72 h. Here is the method:
as §1

Consider `CC(C)[C@]12O[C@H]1[C@@H]1O[C@]13[C@]1(O[C@H]1C[C@H]1C4=C(CC[C@@]13C)C(=O)OC4)[C@@H]2O` [TRP, Triptolide], for which the concentration for half-maximal inhibition (IC50) with H1299 NSCLC cells was 6.25 to 12.5 nM; in the assay on A549 NSCLC cells it was 25 to 50 nM; in the assay on H520 NSCLC cells, 3.13 nM.

Usually IC50 stands for the concentration needed to halve the response being measured. Higher therefore signals weaker potency.

The values above are taken from patent publication US20210023238A1, “TRIPTOLIDE ANTIBODY CONJUGATES” (City of Hope, priority 2019, published 2021).
